Laboratory results from patent US5620890A, “Monoclonal antibodies to hygromycin B and the method of making the same” (The United States of America as represented by the …, priority 1995, dated 1997).

Assays:
Type in all cases: binding, mouse
[1] = system: monoclonal antibody HB-13 (IgG1, kappa; hybridoma ATCC HB-12167); experiment: Competitive indirect ELISA (CI-ELISA), solid-phase antigen HB-SMPB-S-BSA; conditions: for cross-reactivity with the HB-13 antibody: competitor concentration of 50 ppm; for average IC50: free competitor in CI-ELISA
Method: The supernatant culture fluid from the cloned hybridomas may also be screened to select for those producing antibodies having a high affinity for hygromycin B. Affinity may be measured using a variety of well known techniques, such as ELISA, RIA or equilibrium dialysis using labelled hygromycin B. Competitive indirect ELISA (CI-ELISA) is preferred, and is conducted at a final antibody concentration (dilution from tissue culture supernatant) to give 50% of maximal binding to a hygromycin B coated substrate or assay well. In accordance with this embodiment, the antibody containing supernatant is added to a hygromycin B conjugate-coated solid substrate such as the wells of an assay plate, together with a range of concentrations of free hygromycin B as a competitor. Following incubation and washing, bound antibody in the wells is determined in the same manner as the indirect-ELISA. Percent inhibition may be calculated as (1-B/Bo)×100 where B is the optical density (OD) of a well with a competitor and Bo is the mean OD of the wells without competitor (control). […] However, for even greater accuracy, the affinity may be alternatively measured at 50% inhibition (IC50).
A competitive indirect ELISA (CI-ELISA) was used to determine the sensitivity and specificity of the monoclonal antibodies for binding hygromycin B. Microtiter plates were coated with HB-SMPB-S-BSA (400 ng/well) and blocked with 3% non-fat milk solution as described above. After washing five times with 0.05% Tween 20 in distilled water, 100 μL of hygromycin B standard in assay buffer (0.1M Tris, 0.15M NaCl, 0.05% Tween 20, 1% BSA, pH 7.5) and 100 μL antiserum (diluted 1:60 in assay buffer) were added to each well and incubated for 90 min at 37° C. Unbound antibody was removed by washing five times with the 0.05% Tween 20-water solution. Next, 50 μL of goat anti-mouse IgG-peroxidase conjugate (1:500 dilution) was added to each well. After a 60 min incubation at 37° C., the plates were washed ten times with 0.05% Tween 20, and bound antibody-peroxidase conjugate was determined using ABTS. Absorbance was read at 405 nm.
Each point represents the average of 6 replicates. […] The mean intraassay IC50 coefficient of variation (CV) was 7.8% (n=3), while a mean interassay IC50 coefficient of variation of 7.0% (n=3) was observed. […] HB-13 was also characterized as to its ability to recognize related aminoglycoside antibiotics, including spiramycin, gentamicin, kanamycin, amikacin and tylosin.

[2] = system: monoclonal antibodies to hygromycin B obtained with the extended immunization protocol (including HB-3, HB-7, HB-13); experiment: Competitive indirect ELISA (CI-ELISA); conditions: range over antibodies from extended immunization protocol
Method: (§1) The supernatant culture fluid from the cloned hybridomas may also be screened to select for those producing antibodies having a high affinity for hygromycin B. Affinity may be measured using a variety of well known techniques, such as ELISA, RIA or equilibrium dialysis using labelled hygromycin B. Competitive indirect ELISA (CI-ELISA) is preferred, and is conducted at a final antibody concentration (dilution from tissue culture supernatant) to give 50% of maximal binding to a hygromycin B coated substrate or assay well. […]
In the extended immunization schedule, female BALB/c mice were immunized with 75 μg ip injections every two weeks for a total of three injections. On day 35, the mice were bled so that serum titers and antibody specificities could be determined. […]
(§2) A competitive indirect ELISA (CI-ELISA) was used to determine the sensitivity and specificity of the monoclonal antibodies for binding hygromycin B. Microtiter plates were coated with HB-SMPB-S-BSA (400 ng/well) and blocked with 3% non-fat milk solution as described above. […] After a 60 min incubation at 37° C., the plates were washed ten times with 0.05% Tween 20, and bound antibody-peroxidase conjugate was determined using ABTS. Absorbance was read at 405 nm. […]

[3] = system: monoclonal antibodies to hygromycin B obtained with the short immunization protocol; experiment: Competitive indirect ELISA (CI-ELISA); conditions: range over antibodies from short immunization protocol
Method: as §1
In the short immunization schedule, female BALB/c mice (6-8 weeks of age) were injected intraperitoneally (ip) with 75 μg of HB-SMPB-S-OVA (in 0.2 mL physiological saline/RIBI adjuvant). […] One week after the second injection, the mice were bled and serum titers were determined. […]
as §2

| Compound | cross-reactivity with the HB-13 antibody [1] | further results |
| --- | --- | --- |
| NCC[C@H](O)C(=O)N[C@@H]1C[C@H](N)[C@@H](O[C@H]2O[C@H](CN)[C@@H](O)[C@H](O)[C@H]2O)[C@H](O)[C@H]1O[C@H]1O[C@H](CO)[C@@H](O)[C@H](N)[C@H]1O [amikacin] | None of these compounds were observed to cross-react |  |
| CNC1CC(N)C(O)C(OC2OC(CO)C(O)C3OC4(OC(C(N)CO)C(O)C(O)C4O)OC23)C1O (stereo not drawn) [hygromycin B] |  | average IC50 ([1]; each point average of 6 replicates): 76.2 ng/well; average IC50 ([1]; same value expressed as ppm): 0.762 ppm; IC50 [2]: 0.7-1 ppm; IC50 [3]: 10-100 ppm |
| NC[C@H]1O[C@H](O[C@H]2[C@H](O)[C@@H](O[C@H]3O[C@H](CO)[C@@H](O)[C@H](N)[C@H]3O)[C@H](N)C[C@@H]2N)[C@H](O)[C@@H](O)[C@@H]1O [kanamycin] | None of these compounds were observed to cross-react |  |
| CC[C@H]1OC(=O)C[C@@H](O)[C@H](C)[C@@H](O[C@@H]2O[C@H](C)[C@@H](O[C@H]3C[C@@](C)(O)[C@@H](O)[C@H](C)O3)[C@H](N(C)C)[C@H]2O)[C@@H](CC=O)C[C@@H](C)C(=O)/C=C/C(C)=C/[C@@H]1CO[C@@H]1O[C@H](C)[C@@H](O)[C@@H](OC)[C@H]1OC [tylosin] | None of these compounds were observed to cross-react |  |
| gentamicin | None of these compounds were observed to cross-react |  |
| spiramycin | None of these compounds were observed to cross-react |  |
